Assays:
[1] = tested on: cartilage expression markers COL2A, ACAN, and SOX9; test: Real-time PCR of cartilage expression markers in skin organoids; assay type: cell-based, human; conditions: skin organoids on day 69; real-time PCR normalized to GAPDH; CHIR(+) vs CHIR(-); FIG. 8
Method: As a method for evaluating gene expression, cells were lysed and genes were extracted using a lysis buffer, and gene expression was quantified using RT-PCR. To evaluate gene expression, total RNA was isolated with an RNeasy kit (Qiagen, Cat. No. 74106) and cDNA was prepared according to the manufacturer's instructions using Reverse Transcriptase III (Thermo Fisher Scientific, Cat. No. 4368814). Real-time PCR was performed using SRBR Green Master Mix (Thermo Fisher Scientific, Cat. No. A25776) and detection was performed using a Step One Plus Real-time PCR system (Applied Biosystems). The expression of genes was normalized to the expression of glyceraldehyde-3-phosphate dehydrogenase (GAPDH). The degree of gene expression was evaluated using primers specific for COL2A, ACAN, and SOX9 mRNAs.

[2] = tested on: induced pluripotent stem cell-derived skin organoids; test: Skin organoid size and cartilage formation after Wnt signaling pathway activation (brightfield images); assay type: cell-based, human
Method: A skin organoid was cultured based on the literature disclosing an existing skin organoid differentiation protocol using induced pluripotent stem cell lines (Lee, J. et al. Hair-bearing human skin generated entirely from pluripotent stem cells. Nature 582, 399-404(2020)). The induced pluripotent stem cell colony was separated into small cell populations using ReLeSR™ (Stem Cell Technology) and then separated into single cells using Accutase (ThermoFisher). For embryoid body formation, 1000 single cells were aliquoted into each well of a U-bottom low-attachment 96-well plate (Corning). Essential 8 (Gibco) supplemented with Y-27632 (20 μM) was used as an embryoid body culture solution. The single cells were cultured for 2 days until the embryoid body grew to a size of 300 to 500 μm. On day 2 of differentiation, the formed embryoid bodies were transferred to a culture solution including 2% Matrigel (Matrigel; Corning), 10 μM SB431542 (Tocris), 4 ng/ml FGF2 (PeproTech) and 15 ng/ml BMP4 (PeproTech) for non-neural ectoderm differentiation induction. […] The skin organoid to be analyzed was photographed with an EVOS XL Core brightfield system microscope (Thermo Fisher) at ×40 magnification. […]

Structure (SMILES): Cc1c[nH]c(-c2cnc(NCCNc3ccc(C#N)cn3)nc2-c2ccc(Cl)cc2Cl)n1 [CHIR-99021]
- gene expression level of cartilage expression marker ACAN [1]: remarkably reduced
- gene expression level of cartilage expression marker COL2A [1]: remarkably reduced
- gene expression level of cartilage expression marker SOX9 [1]: remarkably reduced
- cartilage formation in skin organoids ([2]; 0.5 to 8 μM added on day 6, organoids on days 38, 65 and 85, vs CHIR(-), FIG. 7): cartilage was not formed
- sizes of the organoids ([2]; 0.5 to 8 μM added to culture solution on day 6 of differentiation, compared to skin organoids generated by the existing method (CHIR(-)), FIGS. 6 and 7): remarkably increased
